Refractive index and mass density data for three compounds are collected here from the NIST ThermoML archive (doi:10.1016/j.fluid.2015.07.023).

As usually defined, the refractive index is the speed of light in vacuum divided by its phase velocity in the sample. The mass density is mass per unit of volume.

Numbers after ± are expanded uncertainties.

The nature of data set [1]: refractive index (Na D-line) (dimensionless). Particulars: 298.15 K; 101.33 kPa; Liquid; Standard Abbe refractometry.
For data set [2] the following is noted: 298.15 K; 101.33 kPa; Liquid; mechanical oscillator.

For `CC(C)O` [propan-2-ol], the refractive index in data set [1] is recorded as 1.37522 ± 0.00068. Also, the mass density in data set [2] turned out to be 782.45 ± 0.21 kg/m3.

For the compound `CO` [methanol], in data set [1], the refractive index is given as 1.32666 ± 0.00068. For the same compound, in data set [2], the mass density was 786.62 ± 0.21 kg/m3.

In the case of `CC(C)OC(C)C` [diisopropyl ether], in data set [1], the refractive index was 1.3653 ± 0.0007. The mass density in data set [2] worked out at 718.3 ± 0.3 kg/m3.
